Data: patent US5532229A, “Topical administration of vitamin D to mammals” (priority 1994, dated 1996)

What was measured:
[1] = Experiment 2: uptake of [14C]-vitamin D3 tracer into serum and conversion to [14C]-25(OH)D3; assay type: in vivo, Male Wistar rats; settings: tracer added to last day's dose
Procedure: One dose of [carbon-14]-labelled vitamin D3 was given at the time of the last of 14 daily doses of nonradioactive vitamin D3. The graphs show the uptake and metabolism of one [^14 C]-vitamin D3 dose during the course of gastric or dermal supplementation with vitamin D3. The tracer was given in addition to the usual, 8 μg/day vitamin D3 dose, and by the same route. Radioactivity in serum was isolated by chromatography to measure that which elutes as vitamin D3, or as […], Each point is the mean of results from six rats;
Uptake of radioactive vitamin D3 from skin or gut during the longer term treatment with vitamin D3 at 20 nmol/day.
The previous experiment 1 involved only one acute dose of a minute, tracer amount of vitamin D3. It remained possible that dermal application could not deliver a larger, more nutritionally relevant amount of vitamin D3. This experiment 2 looked at what happens when vitamin D3 is given during the course of daily treatment with a moderate amount of vitamin D3.
After 30 days, the rats were divided into three groups of 6: one group continued with no supplement, one group was given daily vitamin D3 supplement, 8 μg/day either by gastric tube, the third received the supplement by application to the skin in 50 μL ethanol. Vitamin D3 was given for 3 wk. The day before the rats were killed, the vitamin D3 dose was supplemented with [^14 C]-labelled vitamin D3, 915,000 cpm per rat. Blood was obtained from the tail of each rat at 3 h, 9 h, and by heart puncture when the rats were anesthetized for killing, 24 h after giving the tracer. The blood was extracted and chromatographed to distinguish [^14 C]-vitamin D3 from the [^14 C]-25(OH)D3generated from it. Radioactivity was also measured in the liver, kidney, and adipose tissue. Serum nonradioactive 25(OH)D3 was also measured.

[2] = Experiment 3: serum calcium, phosphate, alkaline phosphatase and body weight after 6 weeks; assay type: in vivo, Male Wistar rats; settings: for Serum Alkaline phosphatase: 6 weeks
Procedure: Male, Wistar rats were obtained at 120-130 g, and placed on a 0.01% calcium, 0.7% phosphate diet that was vitamin D deficient (Teklad Test Diets, Madison, WI) this was for one week to help deplete vitamin D stores. For the next three weeks the rats were fed the vitamin D-deficient diet, but with normal, 0.5%, calcium. Starting with these 3 weeks, the rats were divided into four vitamin D3 -treatment groups, initially, nine rats per group: group a) supplemented once weekly with 0.6 μg vitamin D3 (average dose, 0.08 μg/day); group b) supplemented once every second day with vitamin D3 to provide 2 nmol/day, i.e., each dose was 4 nmol of vitamin D3; group c) supplemented once every second day with vitamin D3 to provide 8 μg/day. The preceding groups all received the vitamin D3 through an infant-feeding tube inserted through the mouth into the stomach. One group, d), received its vitamin D3 in the ethanol applied onto a shaved 2 cm×2 cm patch of skin on the back, this was done every second day to provide vitamin D3 at 8 μg/day. The volume of each dose of vitamin D3 given was adjusted so that the stated doses are per 250 g body weight. Over a second 3-week period while maintaining the described vitamin D3 dosing regimens, diet calcium content was changed weekly and blood sampling was started (that is, changes in calcium and sampling was from weeks 4 to 6, inclusive, of receiving the appropriate vitamin D3 supplement). Diet calcium was first dropped to 0.01% then raised to 1.5% and finally dropped again to 0.01%. For each week of dietary calcium manipulation, blood was obtained at day zero (the day of but just prior to the change in calcium), and days 1, 3, and 7 after the change. During the first week, 0.5 mL of blood was taken on the first two of these days and anticoagulated with heparin, the cells were isolated and resuspended in normal rat plasma and reinjected into the femoral vein. […] For the subsequent samplings, only 0.2-0.3 mL of blood was taken by bleeding from the tail into precalibrated microcentrifuge tubes. In this way, the bleeds prior to sacrifice removed a net total of less than 2 mL of blood, that is, less than or equal to 10% of the blood volume. Samples of daytime urine was collected into microfuge tubes that were fastened to the cones of metabolic collection funnels designed to hang under the wire cages. The cages and cones were rinsed with 0.1 mol/L hydrochloric acid prior to each collection. To eliminate contamination of the urine with diet, stool or water, the rats were placed into these separate cages only during the urine-collection period, until about 1 mL urine was present in the microfuge tube, this was typically within 5 min to one hour. […]

## C=C1CC[C@H](O)C/C1=C/C=C1\CCC[C@]2(C)[C@@H]([C@H](C)CCCC(C)C)CC[C@@H]12 [vitamin D3]
[1]
  rate of uptake into circulation, dermal vs gastric: more slowly when given via the dermal route
[2]; 0.08 μg/day diet
  Serum Alkaline phosphatase: 119 U/L
[2]; 0.8 μg/day G1 (gastric)
  Serum Alkaline phosphatase: 151 U/L
[2]; 8 μg/day G1 (gastric)
  Serum Alkaline phosphatase: 147 U/L
[2]; 8 μg/day dermal
  Serum Alkaline phosphatase: 152 U/L
[2]; end of experiment 3
  body weight difference between groups: no weight differences between the groups
